# Values quoted from earlier work, collected in patent publication US20140234430A1, “PHARMACEUTICAL METHODS AND TOPICAL COMPOSITIONS CONTAINING ACITRETIN” (DOUGLAS PHARMACEUTICALS LTD., priority 2011, published 2014).
smiles,measurement,setting,value
"COc1cc(C)c(/C=C/C(C)=C/C=C/C(C)=C/C(=O)O)c(C)c1C [acitretin, (2E,4E,6E,8E)-9-(4-methoxy-2,3,6-trimethylphenyl)-3,7-dimethylnona-2,4,6,8-tetraenoic acid]",Solubility in alcohols,suitable alcohols,quite poorly soluble
same,Solubility in water,water,very poorly soluble
